Experimental data taken from patent US7834024B2, “Compositions and methods for inhibition of the JAK pathway” (Rigel Pharmaceuticals, Inc., priority 2007, dated 2010).
Read-outs that look alike come from different tables or passages of the source.

Test system: Ramos B-Cell Line Stimulated with IL-4 (JAK-1 and JAK-3 / Stat-6, CD23)
Experiment: Assay for Ramos B-Cell Line Stimulated with IL-4 (CD23 upregulation, FACS)
Type: cell-based
Conditions: human Ramos B cells, compound 1 hour, IL-4 50 units/mL for 20-24 hours, anti-CD23-PE FACS, read-out: Example 2 (IC50)
From the text: One means of assaying for such inhibition is detection of the effect of the 2,4-pyrimidinediamine compounds on the upregulation of downstream gene products. In the Ramos/IL4 assay, B-cells are stimulated with the cytokine Interleukin-4 (IL-4) leading to the activation of the JAK/Stat pathway through phosphorylation of the JAK family kinases, JAK1 and JAK3, which in turn phosphorylate and activate the transcription factor Stat-6. […] To study the effect of inhibitors (e.g., the 2,4-substituted pyrimindinediamine compounds described herein) on the JAK1 and JAK3 kinases, human Ramos B cells are stimulated with human IL-4. 20 to 24 hours post stimulation, cells are stained for upregulation of CD23 and analyzed using flow cytometry (FACS).
B-cells stimulated with cytokine Interleukin-4 (IL-4) activate the JAK/Stat pathway through phosphorylation of the JAK family kinases, JAK-1 and JAK-3, which in turn phosphorylate and activate the transcription factor Stat-6. […] To study the effect of inhibitors on the JAK family kinases, human Ramos B cells were stimulated with human IL-4.
Cells were maintained at a density of 3.5×10^5. The day before the experiment, Ramos B-cells were diluted to 3.5×10^5 cells/mL to ensure that they were in a logarithmic growth phase.
Cells were spun down and suspended in RPMI with 5% serum. 5×10^4 cells were used per point in a 96-well tissue culture plate. Cells were pre-incubated with compound or DMSO (Sigma-Aldrich, St. Louis, Mo., Cat No. D2650) vehicle control for 1 hour in a 37° C. incubator. Cells were then stimulated with IL-4 (Peprotech Inc., Rocky Hill, N.J., Cat No. 200-04) for a final concentration of 50 units/mL for 20-24 hours. […] Detection was performed using a BD LSR I System Flow Cytometer, purchased from Becton Dickinson Biosciences of San Jose, Calif.

| Structure (SMILES) | IC50 (Homo sapiens, Ramos) [nM] | IC50 [nM] |
| --- | --- | --- |
| CN1CCN(C(=O)c2cccc(Nc3ncc(F)c(Nc4ccc(OCC(N)=O)cc4)n3)c2)CC1 [Compound I-37, N4-(4-Aminocarbonylmethoxyphenyl)-5-fluoro-N2-[3-((4-methylpiperazin-1-yl)carbonyl)phenyl]-2,4-pyrimidinediamine] | 2240 |  |
| CN1CCN(c2ccc(Nc3ncc(F)c(Nc4ccc(OCC(N)=O)cc4)n3)cc2C(N)=O)CC1 [Compound I-38, N2-[3-Aminocarbonyl-4-(4-methylpiperazin-1-yl)phenyl]-N4-(4-aminocarbonylmethoxyphenyl)-5-fluoro-2,4-pyrimidinediamine] | 533 |  |
| CNC(=O)c1cc(Nc2ncc(F)c(Nc3ccc(OCC(N)=O)cc3)n2)ccc1N1CCN(C)CC1 [Compound I-39, N4-(4-Aminocarbonylmethoxyphenyl)-5-fluoro-N2-[3-methylaminocarbonyl-4-(4-methylpiperazin-1-yl)phenyl]-2,4-pyrimidinediamine] | 431 |  |
| CN1CCN(C(=O)c2cccc(Nc3ncc(F)c(Nc4ccc(OCC#N)cc4)n3)c2)CC1 [Compound I-40] |  | 567 |
| CN1CCN(c2ccc(Nc3ncc(F)c(Nc4ccc(OCC#N)cc4)n3)cc2C(N)=O)CC1 [Compound I-42, N2-[3-Aminocarbonyl-4-(4-methylpiperazin-1-yl)phenyl]-N4-(4-cyanomethoxyphenyl)-5-fluoro-2,4-pyrimidinediamine] | 14 |  |
| CNC(=O)c1cc(Nc2ncc(F)c(Nc3ccc(OCC#N)cc3)n2)ccc1N1CCN(C)CC1 [Compound I-43, N4-(4-Cyanomethoxyphenyl)-5-fluoro-N2-[3-methylaminocarbonyl-4-(4-methylpiperazin-1-yl)phenyl]-2,4-pyrimidinediamine] | 3.56 |  |
| N#CCOc1cccc(Nc2nc(Nc3cccc(C(N)=O)c3)ncc2F)c1 [Compound I-45, N2-(3-Aminocarbonylphenyl)-N4-(3-cyanomethoxyphenyl)-5-fluoro-2,4-pyrimidinediamine] | 426 |  |
| N#CCOc1cccc(Nc2nc(Nc3ccc(C#N)cc3)ncc2F)c1 [Compound I-46, N4-(3-Cyanomethoxyphenyl)-N2-(4-cyanophenyl)-5-fluoro-2,4-pyrimidinediamine] | 1470 |  |
| N#CCOc1cccc(Nc2nc(Nc3cccc(C#N)c3)ncc2F)c1 [Compound I-47, N4-(3-Cyanomethoxyphenyl)-N2-(3-cyanophenyl)-5-fluoro-2,4-pyrimidinediamine] | 173 |  |
| CN1CCN(C(=O)c2ccc(Nc3ncc(F)c(Nc4cccc(OCC(N)=O)c4)n3)cc2)CC1 [Compound I-48, N4-(3-Aminocarbonylmethoxyphenyl)-5-fluoro-N2-[4-((4-methylpiperazin-1-yl)carbonyl)phenyl]-2,4-pyrimidinediamine] | 913 |  |
| CN1CCN(C(=O)c2ccc(Nc3ncc(F)c(Nc4cccc(OCC(N)=O)c4)n3)cc2)CC1 [Compound I-49, N4-(3-Aminocarbonylmethoxyphenyl)-5-fluoro-N2-[4-((4-methylpiperazin-1-yl)carbonyl)phenyl]-2,4-pyrimidinediamine] |  | 2290 |
| CN1CCN(c2ccc(Nc3ncc(F)c(Nc4cccc(OCC(N)=O)c4)n3)cc2C(N)=O)CC1 [Compound I-50, N4-(3-Aminocarbonylmethoxyphenyl)-N2-[3-aminocarbonyl-4-(4-methylpiperazin-1-yl)phenyl]-5-fluoro-2,4-pyrimidinediamine] | 182 |  |
| CNC(=O)c1cc(Nc2ncc(F)c(Nc3cccc(OCC(N)=O)c3)n2)ccc1N1CCN(C)CC1 [Compound I-51, N4-(3-Aminocarbonylmethoxyphenyl)-5-fluoro-N2-[3-methylaminocarbonyl-4-(4-methylpiperazin-1-yl)phenyl]-2,4-pyrimidinediamine] | 357 |  |
| CN1CCN(C(=O)c2ccc(Nc3ncc(F)c(Nc4cccc(OCC#N)c4)n3)cc2)CC1 [Compound I-52, N4-(3-Cyanomethoxyphenyl)-5-fluoro-N2-[4-((4-methylpiperazin-1-yl)carbonyl)phenyl]-2,4-pyrimidinediamine] |  | 289 |
| CN1CCN(C(=O)c2ccc(Nc3ncc(F)c(Nc4cccc(OCC#N)c4)n3)cc2)CC1 [Compound I-53, N4-(3-Cyanomethoxyphenyl)-5-fluoro-N2-[4-((4-methylpiperazin-1-yl)carbonyl)phenyl]-2,4-pyrimidinediamine] |  | 1420 |
| CN1CCN(c2ccc(Nc3ncc(F)c(Nc4cccc(OCC#N)c4)n3)cc2C(N)=O)CC1 [Compound I-54, N2-[3-Aminocarbonyl-4-(4-methylpiperazin-1-yl)phenyl]-N4-(3-cyanomethoxyphenyl)-5-fluoro-2,4-pyrimidinediamine] | 19.1 |  |

| Structure (SMILES) | IC50 (Homo sapiens, Ramos) [nM] | IC50 [nM] |
| --- | --- | --- |
| CNC(=O)c1cc(Nc2ncc(F)c(Nc3cccc(OCC#N)c3)n2)ccc1N1CCN(C)CC1 [Compound I-55, N4-(3-Cyanomethoxyphenyl)-5-fluoro-N2-[3-methylaminocarbonyl-4-(4-methylpiperazin-1-yl)phenyl]-2,4-pyrimidinediamine] | 38.4 |  |
| Cc1nc(COc2ccc(Nc3nc(Nc4ccc(C(N)=O)cc4)ncc3F)cc2)no1 [Compound I-56, N2-(4-Aminocarbonylphenyl)-5-fluoro-N4-[4-((5-methyl-1,2,4-oxadiazol-3-yl)methoxy)phenyl]-2,4-pyrimidinediamine] | 91.4 |  |
| Cc1nc(COc2ccc(Nc3nc(Nc4cccc(C(N)=O)c4)ncc3F)cc2)no1 [Compound I-57, N2-(3-Aminocarbonylphenyl)-5-fluoro-N4-[4-((5-methyl-1,2,4-oxadiazol-3-yl)methoxy)phenyl]-2,4-pyrimidinediamine] | 292 |  |
| Cc1nc(COc2ccc(Nc3nc(Nc4ccc(C#N)cc4)ncc3F)cc2)no1 [Compound I-58, N2-(4-Cyanophenyl)-5-fluoro-N4-[4-((5-methyl-1,2,4-oxadiazol-3-yl)methoxy)phenyl]-2,4-pyrimidinediamine] | 967 |  |
| Cc1nc(COc2ccc(Nc3nc(Nc4cccc(C#N)c4)ncc3F)cc2)no1 [Compound I-59, N2-(3-Cyanophenyl)-5-fluoro-N4-[4-((5-methyl-1,2,4-oxadiazol-3-yl)methoxy)phenyl]-2,4-pyrimidinediamine] | 596 |  |
| Cc1nc(COc2ccc(Nc3nc(Nc4ccc(C(=O)N5CCN(C)CC5)cc4)ncc3F)cc2)no1 [Compound I-60, 5-Fluoro-N4-[4-((5-methyl-1,2,4-oxadiazol-3-yl)methoxy)phenyl]-N2-[4-((4-methylpiperazin-1-yl)carbonyl)phenyl]-2,4-pyrimidinediamine] |  | 421 |
| Cc1nc(COc2ccc(Nc3nc(Nc4ccc(C(=O)N5CCN(C)CC5)cc4)ncc3F)cc2)no1 [Compound I-61, 5-Fluoro-N4-[4-((5-methyl-1,2,4-oxadiazol-3-yl)methoxy)phenyl]-N2-[4-((4-methylpiperazin-1-yl)carbonyl)phenyl]-2,4-pyrimidinediamine] |  | 898 |
| Cc1nc(COc2ccc(Nc3nc(Nc4ccc(N5CCN(C)CC5)c(C(N)=O)c4)ncc3F)cc2)no1 [Compound I-62, N2-[3-Aminocarbonyl-4-(4-methylpiperazin-1-yl)phenyl]-5-fluoro-N4-[4-((5-methyl-1,2,4-oxadiazol-3-yl)methoxy)phenyl]-2,4-pyrimidinediamine] | 80.5 |  |
| CNC(=O)c1cc(Nc2ncc(F)c(Nc3ccc(OCc4noc(C)n4)cc3)n2)ccc1N1CCN(C)CC1 [Compound I-63, 5-Fluoro-N2-[3-methylaminocarbonyl-4-(4-methylpiperazin-1-yl)phenyl]-N4-[4-((5-methyl-1,2,4-oxadiazol-3-yl)methoxy)phenyl]-2,4-pyrimidinediamine] | 265 |  |
| N#CCOc1ccc(Nc2nc(Nc3ccc(CC#N)cc3)ncc2F)cc1 [Compound I-64, N4-(4-Cyanomethoxyphenyl)-N2-(4-cyanomethylphenyl)-5-fluoro-2,4-pyrimidinediamine] | 79.7 |  |
| N#CCc1ccc(Nc2ncc(F)c(Nc3cccc(OCC(N)=O)c3)n2)cc1 [Compound I-65, N4-(3-Aminocarbonylmethoxyphenyl)-N2-(4-cyanomethylphenyl)-5-fluoro-2,4-pyrimidinediamine] | 189 |  |
| N#CCOc1cccc(Nc2nc(Nc3ccc(CC#N)cc3)ncc2F)c1 [Compound I-66, N4-(3-Cyanomethoxyphenyl)-N2-(4-cyanomethylphenyl)-5-fluoro-2,4-pyrimidinediamine] | 42.2 |  |
| N#CCc1ccc(Nc2nc(Nc3ccc(C(N)=O)cc3)ncc2F)cc1 [Compound I-67, N2-(4-Aminocarbonylphenyl)-N4-(4-cyanomethylphenyl)-5-fluoro-2,4-pyrimidinediamine] | 171 |  |
| N#CCc1ccc(Nc2nc(Nc3cccc(C(N)=O)c3)ncc2F)cc1 [Compound I-68, N2-(3-Aminocarbonylphenyl)-N4-(4-cyanomethylphenyl)-5-fluoro-2,4-pyrimidinediamine] | 1620 |  |
| N#CCc1ccc(Nc2nc(Nc3ccc(C#N)cc3)ncc2F)cc1 [Compound I-69, N4-(4-Cyanomethylphenyl)-N2-(4-cyanophenyl)-5-fluoro-2,4-pyrimidinediamine] | 7190 |  |
